Experimental data from the supplement of paper PMC10307832.

Key:
Assay in all cases: relative viability (nuclei count vs DMSO), 5 days (fraction); higher = more cells survive
Wnt-C59 + Crizotinib = compound: CC1=NC=CC(=C1)C2=CC=C(C=C2)CC(=O)NC3=CC=C(C=C3)C4=CN=CC=C4 [Wnt-C59] + C[C@@H](Oc1cc(-c2cnn(C3CCNCC3)c2)cnc1N)c1c(Cl)ccc(F)c1Cl [Crizotinib] (partner 1 µM)
Procedure, shortened: (§1)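 Nuclei were stained with Hoechst during a one-step fixation (final 0.05% Triton X-100, 1% formaldehyde, 1 ug/ml Hoechst) carried out 5 days after dosing, then counted on 4× images. The cells, lung cancer lines in 1536-well plates, had been dosed by pin tool the day after seeding with one drug alone or a fixed anchor-drug dose plus five library-drug doses (not always all listed) in √10 steps. Relative viability is the nuclei count in treated wells divided by that in vehicle wells, and each value is the median of duplicate plates.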

Wnt-C59 + Luminespib = compound: CC1=NC=CC(=C1)C2=CC=C(C=C2)CC(=O)NC3=CC=C(C=C3)C4=CN=CC=C4 [Wnt-C59] + CCNC(=O)c1noc(-c2cc(C(C)C)c(O)cc2O)c1-c1ccc(CN2CCOCC2)cc1 [Luminespib] (partner 0.01 µM)
Procedure, shortened: as §1

Wnt-C59 + Pemetrexed = compound: CC1=NC=CC(=C1)C2=CC=C(C=C2)CC(=O)NC3=CC=C(C=C3)C4=CN=CC=C4 [Wnt-C59] + Nc1nc2[nH]cc(CCc3ccc(C(=O)N[C@@H](CCC(=O)O)C(=O)O)cc3)c2c(=O)[nH]1 [Pemetrexed] (partner 0.2 µM)
Procedure, shortened: as §1

Wnt-C59 + Pictilisib = compound: CC1=NC=CC(=C1)C2=CC=C(C=C2)CC(=O)NC3=CC=C(C=C3)C4=CN=CC=C4 [Wnt-C59] + CS(=O)(=O)N1CCN(Cc2cc3nc(-c4cccc5[nH]ncc45)nc(N4CCOCC4)c3s2)CC1 [Pictilisib] (partner 1 µM)
Procedure, shortened: as §1

Row | Cell Line | relative viability (Wnt-C59 + Crizotinib; first compound 0.001 µM) | relative viability (Wnt-C59 + Crizotinib; first compound 0.01 µM) | relative viability (Wnt-C59 + Crizotinib; first compound 0.03162 µM) | relative viability (Wnt-C59 + Crizotinib; first compound 0.1 µM) | relative viability (Wnt-C59 + Luminespib; first compound 0.001 µM) | relative viability (Wnt-C59 + Luminespib; first compound 0.01 µM) | relative viability (Wnt-C59 + Luminespib; first compound 0.03162 µM) | relative viability (Wnt-C59 + Luminespib; first compound 0.1 µM) | relative viability (Wnt-C59 + Pemetrexed; first compound 0.001 µM) | relative viability (Wnt-C59 + Pemetrexed; first compound 0.01 µM) | relative viability (Wnt-C59 + Pemetrexed; first compound 0.03162 µM) | relative viability (Wnt-C59 + Pemetrexed; first compound 0.1 µM) | relative viability (Wnt-C59 + Pictilisib; first compound 0.001 µM) | relative viability (Wnt-C59 + Pictilisib; first compound 0.01 µM) | relative viability (Wnt-C59 + Pictilisib; first compound 0.03162 µM) | relative viability (Wnt-C59 + Pictilisib; first compound 0.1 µM)
1 | RERF-LC-KJ | 0.868 | 0.764 | 0.878 | 0.852 | 1.2 | 1.38 | 1.23 | 1.18 | 0.483 | 0.497 | 0.45 | 0.495 | 0.574 | 0.543 | 0.627 | 0.54
2 | EMC-BAC-2 | 0.642 | 0.649 | 0.636 | 0.678 | 1.18 | 1.05 | 1.06 | 1.12 | 0.474 | 0.447 | 0.426 | 0.439 | 0.5 | 0.491 | 0.463 | 0.453
3 | NCI-H522 |  |  |  |  | 1.63 | 1.2 | 0.979 | 1.13 | 1.18 | 1.03 | 1.17 | 0.855 |  |  |  | 
4 | NCI-H1651 | 0.856 | 0.855 | 0.854 | 0.864 | 0.864 | 0.862 | 0.97 | 0.835 | 0.577 | 0.618 | 0.648 | 0.558 | 0.601 | 0.584 | 0.541 | 0.561
5 | IA-LM | 0.919 | 0.746 | 0.632 | 0.705 |  |  |  |  |  |  |  |  | 0.271 | 0.251 | 0.337 | 0.375
6 | NCI-H520 | 0.915 | 0.83 | 0.831 | 0.716 | 0.212 | 0.212 | 0.231 | 0.212 | 0.655 | 0.626 | 0.787 | 0.682 | 0.247 | 0.293 | 0.329 | 0.291
7 | NCI-H1793 |  |  |  |  | 0.176 |  | 0.204 | 0.201 | 0.813 | 0.693 | 0.914 | 0.953 | 0.215 | 0.22 | 0.3 | 0.444
8 | NCI-H647 | 1.12 | 1.15 | 1.2 | 0.909 | 0.145 | 0.175 | 0.149 | 0.166 | 0.162 | 0.158 | 0.201 | 0.178 | 0.35 | 0.374 | 0.39 | 0.429
9 | HCC-44 | 0.878 | 0.78 | 0.753 | 0.757 | 1.18 | 1.2 | 0.897 | 0.997 | 0.619 | 0.647 | 0.64 | 0.629 | 0.597 | 0.639 | 0.621 | 0.772
10 | HCC-827 | 1.01 | 0.979 | 0.942 | 0.975 | 0.7 | 0.693 | 0.645 | 0.698 | 0.282 | 0.262 | 0.282 | 0.255 | 0.83 | 1.07 | 1.15 | 0.971
11 | NCI-H2170 | 1.19 | 1.09 | 1.46 | 1.11 | 0.583 | 0.722 | 0.758 | 0.655 | 0.271 | 0.275 | 0.253 | 0.274 | 0.3 | 0.279 | 0.309 | 0.383
